# Experimental data published in patent US5446035A, “20-methyl-substituted vitamin D derivatives” (Schering Aktiengesellschaft, priority 1991, dated 1995).
# pIC50: −log10 of the molar value.
# Columns and labels:
# HL-60 cells = assay: induction of HL-60 cell differentiation to macrophages (NBT reduction); format: cell-based, human; conditions: 96 hours incubation, formazan at 650 nm
# Protocol: It is known in the literature (Mangelsdorf, D. J. et al., J. Cell. Biol. 98: 391-398 (1984)) that the treatment of human leukemia cells (promyelocyte cell line HL-60, available, e.g., from the ATCC, Rockville, Md.) in vitro with calcitriol induces the differentiation of the cells to macrophages.
# HL-60 cells are cultivated in tissue culture medium (RPMI - 10% fetal calf serum) at 37° C. in an atmosphere of 5% CO2 in air.
# For substance testing, the cells are centrifuged and 2.8×10^5 cells/ml are suspended in phenol red-free tissue culture medium. The test substances are dissolved in ethanol and diluted with tissue culture medium without phenol red to achieve the desired concentration. The diluted test substances are mixed with the cell suspension in a ratio of 1:10 and 100 μl each of this cell suspension mixed with substance is pipetted in a depression of a 96-hole plate. As a control, a cell suspension is prepared similarly, but only with the solvent. […]
# To dissolve the formed intracellular formazan crystals, 100 μl of potassium hydroxide (2 mol/l) and 100 μl of dimethylsulfoxide are pipetted into each depression and ultrasonically irradiated for 1 minute. The concentration of formazan is spectrophotometrically measured at 650 nm.
# As a measurement for the differentiation induction of HL 60 cells to macrophages, the concentration of formed formazan is determined. […]
# [1] = system: human peripheral blood mononuclear cells; assay: PHA-stimulated lymphocyte proliferation ([3H]-thymidine incorporation); format: cell-based; conditions: PBMC, PHA 5 μg/well, 96 hours after stimulation, read-out: concentration inhibiting lymphocyte proliferation by 50%
# Protocol: At the time of seeding, cells were treated with phytohemagglutinin (PHA) 5 μg/well. The test compound was added at the same time as PHA in various concentration. Lymphocyte proliferation was determined 96 hours after stimulation by incorporation of [^3 H]-thymidine. For that, [^3 H]-thymidine (0.2 μCi/well) was added for the last 6 hours of culture, then medium and cells were filtrated through a glass fiber filter. Radioactivity of the filters were determined in a β-counter.
# [2] = system: IL-2 secretion, human peripheral blood mononuclear cells; assay: IL-2 secretion by PHA-stimulated lymphocytes (ELISA); format: cell-based; conditions: compared with calcitriol; PHA 20 μg/well, 24 hours
# Protocol: For determination of IL-2 secretion, human peripheral blood mononuclear cells were prepared as above, seeded at a density of 2×10^6 cells/well×200 μl into 24-well-plates and cultured in RPMI 1640 in the presence of 2% fetal calf serum. At the time of seeding, PHA (20 μg/well) and the test compound was added. 24 hours after stimulation, cell cultures were harvested, medium separated from cells by centrifugation, and IL-2 concentration in the medium determined by an ELISA based on a polyclonal antibody IL-2.
SMILES,relative activity in inducing differentiation: ED50 test substance/ED50 calcitriol (HL-60 cells),pIC50 [1],concentration range at which inhibition of IL-2 secretion starts [2]
"C=C1/C(=C\C=C2/CCC[C@]3(C)[C@@H](C(C)(C)/C=C/C=C/C(C)(C)O)CC[C@@H]23)C[C@@H](O)C[C@@H]1O [1(S),3(R)-Dihydroxy-20-(5-hydroxy-5-methyl-hexa-1E,3E-dien-1-yl)-20-methyl-9,10-secopregna-5Z,7E,10(19)-triene]",~0.001,,
"C=C1/C(=C\C=C2/CCC[C@]3(C)[C@@H]([C@H](C)CCCC(C)(C)O)CC[C@@H]23)C[C@@H](O)C[C@@H]1O [1,25-dihydroxy-vitamin D3, 1α,25-dihydroxycholecalciferol, reference compound]",,9.36,
"C=C1/C(=C\C=C2/CCC[C@]3(C)[C@@H](C(C)(C)CC=CC(C)(C)O)CC[C@@H]23)C[C@@H](O)C[C@@H]1O [ZK 157202, 1α,25-dihydroxy-20-methyl-23,24-dehydrovitamin D3]",,10.89,about the same as for calcitriol
